Source: US10770169B2, “Method of providing a treatment to a subject based on a dynamic pathway map” (THE REGENTS OF THE UNIVERSITY OF CALIFORNIA, priority 2010, dated 2020)

Tested on: panel of 55 breast cancer cell lines
Test: Cell growth inhibition assay (Cell Titer Glo, 72 h, 9 doses; GI50, TGI, LC50)
Type: cell-based, human

## O=c1[nH]c(=O)n([C@H]2C[C@H](O)[C@@H](CO)O2)cc1F [5-FdUR]
AU565 cell line, censored GI50 values, value is the negative log10 of mol/L
  GI50: 4.97
BT20 cell line, censored GI50 values, value is the negative log10 of mol/L
  GI50: 3.49
BT474 cell line, censored GI50 values, value is the negative log10 of mol/L
  GI50: 3.29
BT483 cell line, censored GI50 values, value is the negative log10 of mol/L
  GI50: 4.13
CAMA1 cell line, censored GI50 values, value is the negative log10 of mol/L
  GI50: 3.92
HCC38 cell line, censored GI50 values, value is the negative log10 of mol/L
  GI50: 4.00
HCC70 cell line, censored GI50 values, value is the negative log10 of mol/L
  GI50: 3.67
HCC1143 cell line, censored GI50 values, value is the negative log10 of mol/L
  GI50: 4.02
HCC1187 cell line, censored GI50 values, value is the negative log10 of mol/L
  GI50: 3.81
HCC1395 cell line, censored GI50 values, value is the negative log10 of mol/L
  GI50: 3.60
HCC1419 cell line, censored GI50 values
  GI50: 2.73
HCC1428 cell line, censored GI50 values, value is the negative log10 of mol/L
  GI50: 3.91
HCC1500 cell line, censored GI50 values, value is the negative log10 of mol/L
  GI50: 4.21
HCC1806 cell line, censored GI50 values, value is the negative log10 of mol/L
  GI50: 4.02
HCC1937 cell line, censored GI50 values, value is the negative log10 of mol/L
  GI50: 3.37
HCC1954 cell line, censored GI50 values, value is the negative log10 of mol/L
  GI50: 3.99
HCC2185 cell line, censored GI50 values, value is the negative log10 of mol/L
  GI50: 3.12
HCC3153 cell line, censored GI50 values, value is the negative log10 of mol/L
  GI50: 3.24
LY2 cell line, censored GI50 values, value is the negative log10 of mol/L
  GI50: 5.01
MDAMB134VI cell line, censored GI50 values, value is the negative log10 of mol/L
  GI50: 3.15
MDAMB175VII cell line, censored GI50 values, value is the negative log10 of mol/L
  GI50: 4.69
MDAMB231 cell line, censored GI50 values, value is the negative log10 of mol/L
  GI50: 3.10
MDAMB468 cell line, censored GI50 values, value is the negative log10 of mol/L
  GI50: 3.22
SKBR3 cell line, censored GI50 values, value is the negative log10 of mol/L
  GI50: 3.66
SUM52PE cell line, censored GI50 values, value is the negative log10 of mol/L
  GI50: 3.49
SUM149PT cell line, censored GI50 values, value is the negative log10 of mol/L
  GI50: 4.11
SUM159PT cell line, censored GI50 values, value is the negative log10 of mol/L
  GI50: 4.49
SUM225CWN cell line, censored GI50 values, value is the negative log10 of mol/L
  GI50: 3.71
SUM1315MO2 cell line, censored GI50 values, value is the negative log10 of mol/L
  GI50: 3.13
T47D cell line, censored GI50 values, value is the negative log10 of mol/L
  GI50: 3.48
UACC812 cell line, censored GI50 values, value is the negative log10 of mol/L
  GI50: 4.34
ZR75B cell line, censored GI50 values, value is the negative log10 of mol/L
  GI50: 5.16
ZR751 cell line, censored GI50 values, value is the negative log10 of mol/L
  GI50: 5.27
Cell line 600MPE, value is the negative log10 of mol/L
  GI50: 4.11
Cell line AU565, value is the negative log10 of mol/L
  GI50: 5.18
Cell line BT474, value is the negative log10 of mol/L
  GI50: 3.17
Cell line BT483, value is the negative log10 of mol/L
  GI50: 4.48
Cell line BT549, value is the negative log10 of mol/L
  GI50: 3.74
Cell line CAMA1, value is the negative log10 of mol/L
  GI50: 3.51
Cell line HCC38, value is the negative log10 of mol/L
  GI50: 3.72
Cell line HCC70, value is the negative log10 of mol/L
  GI50: 4.05
Cell line HCC202, value is the negative log10 of mol/L
  GI50: 4.41
Cell line HCC1143, value is the negative log10 of mol/L
  GI50: 3.69
Cell line HCC1187, value is the negative log10 of mol/L
  GI50: 3.18
Cell line HCC1395, value is the negative log10 of mol/L
  GI50: 3.13
Cell line HCC1419, value is the negative log10 of mol/L
  GI50: 3.77
Cell line HCC1428, value is the negative log10 of mol/L
  GI50: 4.99
Cell line HCC1500, value is the negative log10 of mol/L
  GI50: 4.23
Cell line HCC1806, value is the negative log10 of mol/L
  GI50: 4.59
Cell line HCC1937, value is the negative log10 of mol/L
  GI50: 3.64
Cell line HCC1954, value is the negative log10 of mol/L
  GI50: 4.78
Cell line HCC2185, value is the negative log10 of mol/L
  GI50: 3.42
Cell line HCC3153, value is the negative log10 of mol/L
  GI50: 3.45
Cell line LY2, value is the negative log10 of mol/L
  GI50: 4.41
Cell line MCF7, value is the negative log10 of mol/L
  GI50: 4.39
Cell line MDAMB134V
  GI50: 2.01
Cell line MDAMB157, value is the negative log10 of mol/L
  GI50: 3.11
Cell line MDAMB175V, value is the negative log10 of mol/L
  GI50: 3.95
Cell line MDAMB231, value is the negative log10 of mol/L
  GI50: 3.75
Cell line MDAMB361, value is the negative log10 of mol/L
  GI50: 3.84
Cell line MDAMB436
  GI50: 2.97
Cell line MDAMB453, value is the negative log10 of mol/L
  GI50: 4.01
Cell line MDAMB468, value is the negative log10 of mol/L
  GI50: 3.71
Cell line SKBR3, value is the negative log10 of mol/L
  GI50: 4.48
Cell line SUM52PE, value is the negative log10 of mol/L
  GI50: 4.40
Cell line SUM149PT, value is the negative log10 of mol/L
  GI50: 4.14
Cell line SUM159PT, value is the negative log10 of mol/L
  GI50: 4.68
Cell line SUM185PE
  GI50: 2.53
Cell line SUM1315MO, value is the negative log10 of mol/L
  GI50: 3.37
Cell line UACC812, value is the negative log10 of mol/L
  GI50: 4.02
Cell line UACC893, value is the negative log10 of mol/L
  GI50: 3.30
Cell line ZR75B, value is the negative log10 of mol/L
  GI50: 4.95
Cell line ZR751, value is the negative log10 of mol/L
  GI50: 4.51
